Here are results for one molecule from paper PMC12207533, “Structure-guided design of a methyltransferase-like 3 (METTL3) proteolysis targeting chimera (PROTAC) incorporating an indole–nicotinamide chemotype” (RSC Medicinal Chemistry, 2025).

“And” between values parts separate entries of the source, which are not always exact repeats. Equal values may be shown once. Read-outs that look alike come from different tables or passages of the source.

The target of experiment [1] is T1, VCB (VHL, elongin B, elongin C) (Homo sapiens, UniProt P40337).
T1 construct: VHL (UniProt: P40337, aa 1–213); His6 (N); made in house; host or cells: E. coli BL21 (DE3)
The experiment in a line: FP displacement assay with VCB (binary and ternary KD, cooperativity). The experiment is classed as binding. As to the method:
Fluorescence polarization (FP) displacement assays with METTL3/14 (ref. [36]) and VCB[38–40] were performed following previous protocols with slight adaptations. All experiments were conducted in black Greiner 96-well half-area plates using a Tecan Spark 10 M plate reader, equipped with polarization filters coupled to a monochromator setup (λex = 480 nm, λem = 530 nm). Reaction mixtures for METTL3/14 contained 300 nM recombinant enzyme, 20 nM FAM-labelled displacement tracer (STM-FL[36]), and the test compounds at varying concentrations in 25 mM Tris HCl, pH 7.5, 100 mM NaCl, and 10% DMSO. For VCB, the mixtures contained 40 nM recombinant enzyme, 10 nM FAM-labelled probe (FAM-DEALAHyp[…], Tocris Bioscience), and the tested compounds, at varying concentrations, in 50 mM Tris, pH 7.5, 200 mM NaCl, 2 mM DTT, and 10% DMSO. […] All measurements were performed at least as technical triplicates. Polarization values (mP) were determined from polarization-specific parallel and orthogonal fluorescence intensities using the Tecan in-built calculation routine. Using GraphPad Prism 8.0.1, the FP values were normalized, and KD values were calculated using a 4-parameter Hill equation: y(% probe bound) = bottom + ([ligand]slope) × (top–bottom)/([ligand]slope + KD slope).

The subject of experiment [2] is MOLM-13 cells. The experiment in a line: Cell viability assay (CellTiter Glo 2.0). The experiment is classed as cell-based, human. As to conditions: Homo sapiens, MOLM-13, 72 h; read-out: IC50 (cell viability inhibition). As to the method:
To determine cell viability, MOLM-13 cells were treated with the indicated compounds in a 1 : 1 serial dilution, with pure DMSO (final: 0.1%) as the negative control. Briefly, 1000 cells were seeded in black Greiner half-area 96-well plates and incubated for 72 h with inhibitors from DMSO stocks under standard cultivation conditions. Then, Promega CellTiter Glo 2.0 reagent was added to each well according to the manufacturer's protocols, and luminescence was measured using a Tecan Spark 10 M. Experiments were conducted in technical triplicate. Data was normalized to the DMSO control and analyzed with GraphPad Prism 8.0.1 to determine EC50 values. Synergistic effects of venetoclax and AF151 on cell MOLM-13 viability were conducted accordingly, with dilution series of both compounds analyzed using the SynergyFinder+ webtoolkit.[57]

For the next experiment, the system named is Bcl-XL. The experiment in a line: Immunoblotting of Bcl-XL protein levels in MOLM-13 cells. The experiment is classed as cell-based, human. As to conditions: 2 μM, time course. On the procedure:
(§1) MOLM-13 were seeded in 12-well cell culture plates at a density of 1 × 10^6 cells per mL and treated with DMSO (final: 0.1%) or different concentrations of PROTAC degraders in DMSO at the indicated times. Treatments were conducted in biological triplicate with varying passages of MOLM-13 cells. The cells were harvested by centrifugation at 500g for 5 min and washed with PBS. The cells were lysed with RIPA lysis buffer with the addition of protease inhibitor (1× cOMPLETE), and insoluble cellular parts were separated by centrifugation (12 000g for 10 min), subsequently, the supernatant was boiled with 1× Laemmli sample buffer (Carl Roth) for 5 min at 95 °C. Proteins were separated by SDS–PAGE on 4–20% Criterion™ TGX™ Precast Protein Gels (Bio-Rad) and transferred to Amersham™ Protean® 0.45 μm nitrocellulose membrane (Cytiva) using semi-dry transfer (25 V, 1 A, Towbin buffer). […] The protein bands were detected via chemiluminescence using Pierce™ ECL western blotting substrate and a Fusion FX imaging system (Vilber). The ImageLab software (Bio-Rad) was used for band quantification.
Background: Immunoblotting shows a protein as a band on a membrane.

For the next experiment, the target named is T2, human VHL (Homo sapiens, UniProt P40337).
T2 construct: purchased Revvity
The experiment in a line: HTRF human VHL binding kit. As to the method:
PROTACs binding to VHL or CRBN were measured using a homogeneous time-resolved fluorescence (HTRF) human VHL or CRBN binding kit (Revvity). Samples were prepared according to the manufacturer's protocol, with compounds diluted in the provided diluent while maintaining a constant DMSO concentration with a final concentration of 1.25%. For the ternary KD determinations, METTL3/14 was added at 4 μM, corresponding to approximately a 20- to 40-fold excess of binary KD, while all other component concentrations were kept as specified in the protocol. Measurements were performed in triplicate using a Tecan Spark 10 M plate reader, recording donor and acceptor emissions at λem_donor = 620 nm and λem_acceptor = 665 nm, respectively, following excitation of the HTRF donor at λex = 320 nm. The acceptor-to-donor emission ratio was calculated as ratio = signal 665 nm/signal 620 nm. Using GraphPad Prism 8.0.1, the fluorescence values were normalized, and KD values were calculated as specified above.
In general terms: TR-FRET usually uses a lanthanide donor and a delayed reading to cut background.

In the next experiment the test system is Bcl-2. The experiment in a line: Immunoblotting of Bcl-2 protein levels in MOLM-13 cells. The class given is cell-based, human. As to conditions: 2 μM, time course. As to the method:
as §1

The test system of the next experiment is METTL14 mRNA. The experiment in a line: RT-qPCR of METTL14 mRNA expression. The class given is cell-based, human. As to conditions: MOLM-13, AF151 2 μM or STM2457 10 μM, 24 h and 48 h. As to the method:
(§2) To determine mRNA expression levels of METTL3 and METTL14, MOLM-13 cells were treated in triplicate with compound 41 (AF151, 2 μM), STM2457 (10 μM), and DMSO for 24 resp. 48 h. Afterward, total RNA was extracted using the TRIzol™ reagent (Thermo Fisher Scientific) and purified with the Monarch® Spin RNA Cleanup Kit (New England Biolabs). RT-qPCR was conducted using the two-step GoTaq® RT-qPCR system (Promega) following the manufacturer's protocol. The data were normalized to the DMSO control and GAPDH housekeeping gene (ΔΔCt) using GraphPad Prism 8.0.1.

The subject of the next experiment is METTL3 mRNA. Put plainly: RT-qPCR of METTL3 mRNA expression. The experiment is classed as cell-based, human. As to conditions: MOLM-13, AF151 2 μM or STM2457 10 μM, 24 h and 48 h. As to the method:
as §2

For experiment [3], the system named is MOLM-13 cells. Put plainly: Real-time annexin V apoptosis assay. The experiment is classed as cell-based, human. As to conditions: MOLM-13, dose-dependent, monitored over 48 h. On the procedure: MOLM-13 cells were treated with AF151 at the indicated concentrations for 48 h, with DMSO (final: 0.1%) as the negative control. Apoptosis of technical triplicate samples was detected in real-time using the RealTime-Glo™ annexin V apoptosis assay kit (Promega), following the manufacturer's protocol. Data were plotted using GraphPad Prism 8.0.1.

For experiment [4], the system named is m^6A levels in MOLM-13 mRNA. The experiment in a line: RNA m^6A quantification (colorimetric kit). The experiment is classed as cell-based, human. As to conditions: MOLM-13, AF151 2 μM vs STM2457 10 μM, 24 and 48 h. On the procedure: Quantification of m^6A levels upon compound treatment was conducted in analogy to the study introducing the WD6305 PROTAC.[31] MOLM-13 cells were treated with AF151 (2 μM), STM2457 (10 μM), and DMSO in triplicate for 24 and 48 h. Total RNA was isolated as specified above. PolyA mRNA was then isolated using the PolyATtract® mRNA Isolation System (Promega). m^6A levels were quantified using a colorimetric m^6A RNA methylation Assay Kit (Abcam) as specified in the manufacturer's protocol.

In another experiment the test system is Mcl-1. The experiment in a line: Immunoblotting of Mcl-1 protein levels in MOLM-13 cells. As to conditions: 2 μM, time course. The experiment is classed as cell-based, human. As to the method:
as §1

Another experiment has as its system METTL14. Put plainly: Immunoblotting of METTL14 protein levels in MOLM-13 cells. The experiment is classed as cell-based, human. On the procedure: as §1

T1 sequence (P40337 whole entry, the tested form may be a part): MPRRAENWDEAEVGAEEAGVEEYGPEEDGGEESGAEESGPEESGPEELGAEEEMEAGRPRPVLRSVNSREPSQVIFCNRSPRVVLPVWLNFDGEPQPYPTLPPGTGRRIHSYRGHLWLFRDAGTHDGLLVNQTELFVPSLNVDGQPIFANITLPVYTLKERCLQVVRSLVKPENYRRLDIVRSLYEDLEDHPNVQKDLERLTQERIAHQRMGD
T1 sequence (Q15370 whole entry partner, the tested form may be a part): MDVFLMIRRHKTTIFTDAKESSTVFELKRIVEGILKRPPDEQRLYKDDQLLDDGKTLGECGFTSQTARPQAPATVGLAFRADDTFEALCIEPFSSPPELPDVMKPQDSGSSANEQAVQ
T1 sequence (Q15369 17-112 partner limits assumed): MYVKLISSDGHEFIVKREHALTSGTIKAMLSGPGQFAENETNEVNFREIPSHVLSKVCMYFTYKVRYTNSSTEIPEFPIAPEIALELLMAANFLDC
T2 sequence (P40337 whole entry): as the sequence (P40337 whole entry, the tested form may be a part) above
T2 sequence (Q15370 whole entry partner): as the sequence (Q15370 whole entry partner, the tested form may be a part) above
T2 sequence (Q15369 whole entry partner): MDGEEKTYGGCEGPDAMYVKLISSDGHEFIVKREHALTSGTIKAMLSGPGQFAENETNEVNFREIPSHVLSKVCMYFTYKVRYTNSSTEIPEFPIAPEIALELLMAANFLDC

A word on the Kd: it is the free concentration of one partner at which half of the binding sites on the other are occupied at equilibrium, for simple one-to-one binding. As a reminder, the IC50 is the point on the concentration scale where inhibition reaches its midpoint. In the case of `Cc1ncsc1-c1ccc(CNC(=O)[C@@H]2C[C@@H](O)CN2C(=O)[C@@H](NC(=O)CCc2ccc(-c3ccc(COc4cncc(C(=O)NCc5ccc6cc(CN7CCC(C)(C)CC7)[nH]c6c5)c4)cc3)cc2)C(C)(C)C)cc1` [compound 41], the Kd was 0.363 µM in experiment [1] (absence of METTL3, read-out: KD binary (VHL)); 0.0799 µM and 0.077 µM in experiment [1] (presence of METTL3/14 (12 μM), read-out: KD ternary (VHL)); 0.74 ± 0.113 µM at human VHL (HTRF Human VHL Binding Kit, binary, read-out: KD E3-ligases (VHL, HTRF)). Moreover, in the experiment with MOLM-13 cells [2], the IC50 was found to be 0.45 µM. For the same molecule, in the experiment with Bcl-XL, the “effect on Bcl-XL protein level” value is “but not Bcl-XL”. Further, the “cooperativity (HTRF)” value on human VHL (VHL affinity in presence and absence of METTL3/14 (4 μM)) is listed as “positive cooperativity”. Moreover, the “effect on Bcl-2 protein level” value in the experiment on Bcl-2 is recorded as “time-dependent reduction”. Also, the “t1/2 of Bcl-2 protein level decrease” value with Bcl-2 is recorded as 18 h. Moreover, the “METTL14 mRNA level (ΔΔCt)” value in the experiment on METTL14 mRNA was “no significant changes”. Further, the “METTL3 mRNA level (ΔΔCt)” value with METTL3 mRNA is “no significant changes”. In addition, the “time to apoptosis induction” value with MOLM-13 cells [3] is on record as “approximately 10 h”. For the same molecule, the “global m^6A level reduction in mRNA” value in [4] is “more pronounced m^6A reduction”. In addition, the “effect on Mcl-1 protein level” value with Mcl-1 is recorded as “time-dependent reduction”. Moreover, the “METTL14 protein level relative to DMSO (transient increase)” value in the experiment with METTL14 (2 μM, after 1 h, MOLM-13) is around 150%. Moreover, in the experiment with METTL14 (MOLM-13, 1 μM, 16 h), the “METTL14 degradation (Western blot)” value is reported as “significant degradation”.
